Experimental data as given in paper PMC12718081 (ACS Infectious Diseases, 2025).
Where “and” joins values, the source holds several entries; their conditions need not be identical. Identical values can stand only once. Entries after “also recorded” stand apart in the source; their conditions may differ. Like-named read-outs stand apart in the source and are kept apart here.

What was measured:
[1] = tested on: juvenile schistosomes (21 days p.i.); assay: XTT juvenile viability assay; type: cell-based, Schistosoma mansoni; details: 100 μM, 48 h
[2] = tested on: adult schistosomes (male and female worms); assay: Adult worm ex vivo high-content image-based motility assay; type: cell-based, Schistosoma mansoni
Description: Adult schistosomes’ motility was determined using a high-content assay previously developed by our group, , with images analyzed in CellProfiler software. More details are provided in the Supporting Information.
(§1) Adult worm ex-vivo high-content assay
(§2) “Area” and “False Negative Rate” from the MeasureObjectSizeShape and MeasureObjectOverlap modules, respectively. These measurements were then modeled by a multilevel generalized linear statistical model. The effects of the experimental treatments on […]
(§3) The half-maximal inhibitory
(§4) Windows (GraphPad Software, Boston, MA, USA; www.graphpad.com). […]
with DMSO as a negative control.

[3] = in vitro; details: human, HepG2 cytotoxicity (CC50)
Description: (§5) Next, we conducted a more detailed investigation by performing dose–response assays with each compound on HepG2 hepatic epithelial cells, as the liver is one of the major organs affected in intestinal schistosomiasis.
(§6) More details are provided in the Supporting Information.
as §1
(§7) Male and female worms were placed in 96-well microplates (one worm per well) and incubated […]
(§8) to 72 hours. Brightfield timelapse images (100 images, 0.3-second intervals) were captured from each well before, immediately after, and every 24 hours following compound addition using an ImageXpress Micro Confocal High Content System equipped with a 2x objective. Image analysis was performed through a custom pipeline in CellProfiler software (v. 4.2.1, Windows OS).57 During analysis, the area of each worm and its displacement between consecutive image captures (i.e., images taken at successive time points) were measured using the parameters “Area” and “False Negative Rate” from the MeasureObjectSizeShape and MeasureObjectOverlap modules, respectively. These measurements were then modeled by a multilevel generalized linear statistical model. The effects of the experimental treatments on parasite motility were estimated with the integrated nested Laplace approximation (INLA) method, available in the INLA package of R (https://www.r-inla.org). The half-maximal inhibitory concentration (EC50) of each compound was calculated based on the worms' estimated motility using the […] 4-parameter logistic equation in GraphPad Prism version 9.0.0 for Windows (GraphPad Software, Boston, MA, USA; www.graphpad.com). […]
(§9) either at a fixed concentration (10 µM) or across a range of concentrations (0.0001–300 µM), or with DMSO as a negative control. Two hours before the end of the experiment (t0), a resazurin solution (final concentration: 0.01 mg/mL) was added to each well and the first fluorescence […]
(§10) reader. At the end of the incubation (t1), a second reading was performed. The fluorescence attributed solely to resorufin was measured by subtracting the fluorescence readings at t0 from those at t1. The results were expressed as percentual cell viability considering negative control

[4] = tested on: HepG2 hepatic epithelial cells; assay: in vitro; details: for Selectivity Index (CC50/EC50), Male: HepG2 CC50 / male worm motility EC50, 48 h
Description: as §5, §6, §1, §7, §8, §9, §10

[5] = target: Sm.TRPMPZQ (wild-type) (Schistosoma mansoni, UniProt A0A5K4F0X5); assay: Ca2+ reporter (FLIPR) activation assay, wild-type Sm.TRPMPZQ in HEK293 cells; type: cell-based
Description: (§11) The Ca^2+ reporter assay was performed using a Fluorescence Imaging Plate Reader (FLIPR) system, as described in the Supporting Information. […]
as §3, §4
(§12) with DMSO as a negative control. […]
(§13) reader. […] The fluorescence
(§14) Untransfected HEK293 cells were used as a control.
(§15) 10% fetal bovine serum (FBS). […]
(§16) atmosphere containing 5% CO₂. Following incubation, the growth medium was removed and […]
buffer containing 2.5 mM probenecid in HBSS (with Ca²⁺ and Mg²⁺), 20 mM HEPES, 0.3% BSA (Sigma, A7030), and 0.03% L-ascorbic acid (Sigma). Cells were incubated for 40 minutes at 37 °C and subsequently for 20 minutes at room temperature. […]
prepared in assay buffer without dye and probenecid and dispensed into separate flat-bottom 384-well plates. Calcium flux measurements were performed at room temperature using a […]
(§17) instrument (Molecular Devices). Baseline fluorescence was recorded for 20 seconds, followed by the addition of 5 µL of each drug solution, after which fluorescence was measured continuously for 250 seconds. […]

[6] = target: Eg.TRPMPZQ (Echinococcus granulosus, UniProt W6UVV9); assay: cell-based; details: HEK293, Ca2+ reporter, mean ± standard deviation; for Emax: read-out: Bmax, Eg.TRPMPZQ activation
[7] = tested on: Fh.TRPMPZQ; assay: Ca2+ reporter (FLIPR) activation assay, Fh.TRPMPZQ in HEK293 cells; type: cell-based, Fasciola hepatica; details: at the tested concentrations, data not shown
Description: (§18) Finally, selectivity for Sm.TRPMPZQ was assessed by profiling responses on the F. hepatica (Fh.TRPMPZQ) and E. granulosus (Eg.TRPMPZQ) TRPMPZQ orthologs, as well as the schistosome TRPM paralog Sm.TRPMMCLZ, a distinct TRPM channel activated by meclonazepam. Meclonazepam is an anthelmintic benzodiazepine known for its toxicity to juvenile schistosome worms.
as §11, §3, §4, §12, §13, §14, §15, §16
(§19) buffer containing 2.5 mM probenecid in HBSS (with Ca²⁺ and Mg²⁺), 20 mM HEPES, 0.3% BSA (Sigma, A7030), and 0.03% L-ascorbic acid (Sigma). Cells were incubated for 40 minutes at 37 °C and subsequently for 20 minutes at room temperature. A total of seven PZQ derivatives were tested, using racemic PZQ included as a positive control on each assay plate. Drug dilutions were prepared in assay buffer without dye and probenecid and dispensed into separate flat-bottom 384-well plates. Calcium flux measurements were performed at room temperature using a […]
as §17

[8] = tested on: Sm.TRPMMCLZ; assay: Ca2+ reporter (FLIPR) activation assay, Sm.TRPMMCLZ in HEK293 cells; type: cell-based, Schistosoma mansoni; details: at the tested concentrations, data not shown
Description: as §18, §11, §3, §4, §12, §13, §14, §15, §16, §19, §17

[9] = tested on: juvenile schistosomes; assay: Microscopy analysis of juvenile morphology and motility (viability score 0-3); details: 10 μM, 72 h; for number of juvenile worms with viability score 0 / number of juvenile worms with viability score 1 / number of juvenile worms with viability score 2 / number of juvenile worms with viability score 3: Table S1
[10] = tested on: S. mansoni schistosomula; assay: Roboworm high-content screening assay on schistosomula (motility and phenotype scores); type: cell-based, Schistosoma mansoni; details: 25 μM, 72 h
Description: All PZQ derivatives were synthesized in the racemic form and evaluated as such. The compounds were initially screened at 10 μM against S. mansoni schistosomula using the Roboworm high-content screening assay , and were declared hits or nonhits based on their effect on parasites’ motility and phenotype scores after 72 h of incubation. As none of the compounds were considered hits at this concentration, we performed a titration from 6.25 to 50 μM (Figure S27).
DMSO was included as a negative control. Compounds were considered hits if both their motility and phenotype scores were lower than −0.35 and −0.15, respectively (region delimited by the dashed lines). In red, PZQ analogues selected for further analysis.
For the collection of schistosomula, B. glabrata snails infected with S. mansoni were shed for 2 h under light at 26 °C. Cercariae were collected, mechanically transformed into schistosomula as previously described.
DMSO (0.625%, v/v) was included as a negative control. Z′ values for the assay were calculated to be 0.542 for phenotype and 0.361 for motility. […]
Auranofin (AUR) was included at 10 µM as positive control. DMSO was included as a negative control. Compounds were considered hits if both their motility and phenotype scores were lower than -0.35 and -0.15, respectively (region delimited by the […]

[11] = tested on: Sm.TRPMPZQ; assay: Ca2+ reporter assay in antagonist mode (block of PZQ activation of Sm.TRPMPZQ); type: cell-based, Schistosoma mansoni; details: preincubation 1 nM-100 μM for 10 min, data not shown
Description: The Ca^2+ reporter assay was performed using a Fluorescence Imaging Plate Reader (FLIPR) system, as described in the Supporting Information.
as §1, §2, §3, §4, §12, §13, §14, §15, §16, §19, §17
schistosomula after 72h of incubation using the Roboworm high-content screening assay. Auranofin (AUR) was included at 10 µM as positive control. DMSO was included as a negative control. Compounds were considered hits if both their motility and phenotype scores were lower than -0.35 and -0.15, respectively (region delimited by the […]
(1 picture or pasted object on this page, not shown here)

[12] = Schistosoma mansoni, 24 h, male adult worms, 24 h, single experiment or geometric mean, read-out: Male worm motility inhibition (EC50)
[13] = Schistosoma mansoni, 48 h, male adult worms, 48 h, single experiment or geometric mean, read-out: Male worm motility inhibition (EC50)
[14] = Schistosoma mansoni, 72 h, male adult worms, 72 h, single experiment or geometric mean, read-out: Male worm motility inhibition (EC50)

Sequence of Eg.TRPMPZQ (W6UVV9 entry or part of it): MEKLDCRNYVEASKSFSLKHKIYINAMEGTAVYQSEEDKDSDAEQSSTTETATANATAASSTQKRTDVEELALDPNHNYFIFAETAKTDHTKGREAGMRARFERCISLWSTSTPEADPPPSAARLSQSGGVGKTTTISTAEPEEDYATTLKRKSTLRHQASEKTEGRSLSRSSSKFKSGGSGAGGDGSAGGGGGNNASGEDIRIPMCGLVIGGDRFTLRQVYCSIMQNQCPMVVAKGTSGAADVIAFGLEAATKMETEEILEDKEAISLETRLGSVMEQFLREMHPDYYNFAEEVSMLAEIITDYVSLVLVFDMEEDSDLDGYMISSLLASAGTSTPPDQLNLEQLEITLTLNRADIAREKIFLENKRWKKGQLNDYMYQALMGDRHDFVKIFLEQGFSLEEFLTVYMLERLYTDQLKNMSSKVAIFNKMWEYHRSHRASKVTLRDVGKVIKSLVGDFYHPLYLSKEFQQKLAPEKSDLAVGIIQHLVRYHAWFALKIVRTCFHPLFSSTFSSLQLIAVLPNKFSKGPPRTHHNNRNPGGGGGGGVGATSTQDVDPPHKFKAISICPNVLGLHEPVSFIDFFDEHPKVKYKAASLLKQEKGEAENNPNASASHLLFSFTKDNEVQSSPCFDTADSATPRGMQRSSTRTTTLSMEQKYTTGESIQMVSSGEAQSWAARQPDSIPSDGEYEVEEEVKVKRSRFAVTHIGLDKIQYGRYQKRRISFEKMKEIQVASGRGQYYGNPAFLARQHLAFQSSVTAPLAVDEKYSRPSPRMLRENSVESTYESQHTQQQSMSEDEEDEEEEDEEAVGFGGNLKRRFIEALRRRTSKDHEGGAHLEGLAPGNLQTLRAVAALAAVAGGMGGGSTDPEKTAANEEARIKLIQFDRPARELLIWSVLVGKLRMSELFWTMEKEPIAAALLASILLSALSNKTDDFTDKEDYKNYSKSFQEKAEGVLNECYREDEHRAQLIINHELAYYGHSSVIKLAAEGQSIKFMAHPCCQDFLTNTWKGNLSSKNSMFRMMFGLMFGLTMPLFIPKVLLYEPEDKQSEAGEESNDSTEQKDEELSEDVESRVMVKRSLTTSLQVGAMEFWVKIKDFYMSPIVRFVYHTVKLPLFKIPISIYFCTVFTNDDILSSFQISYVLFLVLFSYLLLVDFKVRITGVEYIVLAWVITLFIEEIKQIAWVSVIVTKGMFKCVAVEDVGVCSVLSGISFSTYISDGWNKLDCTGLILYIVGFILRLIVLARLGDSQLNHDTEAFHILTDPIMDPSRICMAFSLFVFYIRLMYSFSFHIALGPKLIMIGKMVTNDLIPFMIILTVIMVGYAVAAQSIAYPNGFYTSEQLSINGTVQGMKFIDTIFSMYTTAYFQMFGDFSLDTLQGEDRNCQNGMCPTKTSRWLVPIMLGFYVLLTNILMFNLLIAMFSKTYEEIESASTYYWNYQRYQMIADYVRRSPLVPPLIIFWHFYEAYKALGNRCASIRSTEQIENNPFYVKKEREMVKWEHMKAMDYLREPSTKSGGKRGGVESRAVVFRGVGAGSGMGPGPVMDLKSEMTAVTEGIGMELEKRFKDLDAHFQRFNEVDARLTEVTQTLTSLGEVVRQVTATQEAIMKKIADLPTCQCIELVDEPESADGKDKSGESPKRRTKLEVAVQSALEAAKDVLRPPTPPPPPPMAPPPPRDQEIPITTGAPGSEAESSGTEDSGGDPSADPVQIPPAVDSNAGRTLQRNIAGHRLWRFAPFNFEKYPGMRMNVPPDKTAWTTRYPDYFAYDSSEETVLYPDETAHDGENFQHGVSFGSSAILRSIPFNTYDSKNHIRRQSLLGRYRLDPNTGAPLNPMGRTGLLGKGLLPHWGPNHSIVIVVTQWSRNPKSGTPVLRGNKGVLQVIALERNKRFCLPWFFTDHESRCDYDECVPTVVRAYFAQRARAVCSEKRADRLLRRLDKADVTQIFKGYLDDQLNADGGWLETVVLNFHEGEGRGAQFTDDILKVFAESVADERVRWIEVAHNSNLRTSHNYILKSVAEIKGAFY
Sequence of Sm.TRPMPZQ (wild-type) (A0A5K4F0X5 entry or part of it): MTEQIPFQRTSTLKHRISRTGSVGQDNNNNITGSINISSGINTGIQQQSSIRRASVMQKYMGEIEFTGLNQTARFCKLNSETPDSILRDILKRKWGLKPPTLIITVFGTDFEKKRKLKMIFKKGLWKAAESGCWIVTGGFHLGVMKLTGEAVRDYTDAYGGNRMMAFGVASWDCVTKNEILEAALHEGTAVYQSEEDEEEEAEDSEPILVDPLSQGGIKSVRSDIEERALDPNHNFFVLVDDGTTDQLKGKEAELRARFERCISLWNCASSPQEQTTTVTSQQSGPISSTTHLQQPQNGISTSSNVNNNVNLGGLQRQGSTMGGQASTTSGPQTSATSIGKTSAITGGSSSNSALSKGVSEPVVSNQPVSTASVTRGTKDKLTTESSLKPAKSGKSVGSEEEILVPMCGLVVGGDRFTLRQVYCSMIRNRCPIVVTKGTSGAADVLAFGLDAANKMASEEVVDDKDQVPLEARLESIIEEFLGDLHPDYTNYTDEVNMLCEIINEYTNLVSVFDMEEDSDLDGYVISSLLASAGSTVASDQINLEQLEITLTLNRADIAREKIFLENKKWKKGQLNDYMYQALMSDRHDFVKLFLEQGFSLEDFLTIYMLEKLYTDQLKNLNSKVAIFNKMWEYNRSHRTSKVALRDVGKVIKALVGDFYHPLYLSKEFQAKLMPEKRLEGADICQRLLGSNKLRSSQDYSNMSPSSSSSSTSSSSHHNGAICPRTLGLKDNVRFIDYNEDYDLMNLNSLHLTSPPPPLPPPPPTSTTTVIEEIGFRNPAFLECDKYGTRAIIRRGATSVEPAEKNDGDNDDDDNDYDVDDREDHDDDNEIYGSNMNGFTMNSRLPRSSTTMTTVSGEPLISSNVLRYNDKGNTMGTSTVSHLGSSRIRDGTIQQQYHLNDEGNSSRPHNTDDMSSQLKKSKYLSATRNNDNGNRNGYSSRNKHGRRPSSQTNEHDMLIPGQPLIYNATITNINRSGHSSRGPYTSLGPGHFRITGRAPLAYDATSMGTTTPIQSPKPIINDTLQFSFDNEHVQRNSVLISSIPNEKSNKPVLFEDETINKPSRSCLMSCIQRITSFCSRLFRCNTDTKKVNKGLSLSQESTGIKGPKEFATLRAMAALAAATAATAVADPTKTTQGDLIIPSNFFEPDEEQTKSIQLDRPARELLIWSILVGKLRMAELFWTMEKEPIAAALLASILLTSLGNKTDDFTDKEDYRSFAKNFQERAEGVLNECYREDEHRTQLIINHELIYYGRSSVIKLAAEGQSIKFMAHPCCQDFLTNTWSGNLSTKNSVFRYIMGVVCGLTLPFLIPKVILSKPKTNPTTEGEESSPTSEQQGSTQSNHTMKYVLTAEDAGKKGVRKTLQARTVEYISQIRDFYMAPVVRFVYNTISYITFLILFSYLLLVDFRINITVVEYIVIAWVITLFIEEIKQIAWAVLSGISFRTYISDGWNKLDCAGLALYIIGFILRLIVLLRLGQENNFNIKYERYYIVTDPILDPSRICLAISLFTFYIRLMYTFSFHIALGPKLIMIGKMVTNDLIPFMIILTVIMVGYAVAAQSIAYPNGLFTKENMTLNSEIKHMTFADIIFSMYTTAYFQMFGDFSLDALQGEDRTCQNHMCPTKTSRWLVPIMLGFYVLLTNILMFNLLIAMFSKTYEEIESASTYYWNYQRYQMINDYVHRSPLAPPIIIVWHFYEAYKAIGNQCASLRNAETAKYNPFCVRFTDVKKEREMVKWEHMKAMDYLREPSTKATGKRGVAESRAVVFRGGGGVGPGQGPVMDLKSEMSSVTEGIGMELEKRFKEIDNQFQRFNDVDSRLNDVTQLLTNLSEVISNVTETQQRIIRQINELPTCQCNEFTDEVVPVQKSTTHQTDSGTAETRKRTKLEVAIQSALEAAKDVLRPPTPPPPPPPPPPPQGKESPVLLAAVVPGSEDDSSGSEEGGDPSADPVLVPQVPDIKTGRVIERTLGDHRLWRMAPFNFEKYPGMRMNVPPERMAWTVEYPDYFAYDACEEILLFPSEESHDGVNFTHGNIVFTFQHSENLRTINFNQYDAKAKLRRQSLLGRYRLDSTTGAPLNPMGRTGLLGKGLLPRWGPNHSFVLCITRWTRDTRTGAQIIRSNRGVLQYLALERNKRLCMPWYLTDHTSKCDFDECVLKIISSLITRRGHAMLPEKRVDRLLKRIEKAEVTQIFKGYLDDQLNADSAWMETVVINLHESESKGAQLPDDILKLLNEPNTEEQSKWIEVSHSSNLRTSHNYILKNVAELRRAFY

Nc1ccc2c(c1)C1CN(C(=O)C3CCCCC3)CC(=O)N1CC2 (stereo not shown) [Compound 3, 9-NH2–PZQ]
parasite metabolic activity compared to the DMSO control group (XTT) [1]: significantly decreased | EC50 ([2]; Schistosoma mansoni, 0 h, female adult worms, 0 h (immediately after addition), single experiment or geometric mean, read-out: Female worm motility inhibition (EC50)): 8.36 µM | EC50 ([2]; Schistosoma mansoni, 24 h, female adult worms, 24 h, single experiment or geometric mean, read-out: Female worm motility inhibition (EC50)): 9.6 µM | EC50 ([2]; Schistosoma mansoni, 24 h, female, 24 h, individual experiments, read-out: Female worm motility inhibition (EC50), values of independent experiments): 9.04 µM | EC50 [2, 12]: 5.4 µM | EC50 ([2]; Schistosoma mansoni, 48 h, female adult worms, 48 h, single experiment or geometric mean, read-out: Female worm motility inhibition (EC50)): 9.9 µM | EC50 ([2]; Schistosoma mansoni, 48 h, female, 48 h, individual experiments, read-out: Female worm motility inhibition (EC50), values of independent experiments): 9.36 µM | EC50 [2, 13]: 4.5 µM | EC50 ([2]; Schistosoma mansoni, 48 h, male, 48 h, individual experiments, read-out: Male worm motility inhibition (EC50), values of independent experiments): 3.94 µM | EC50 ([2]; Schistosoma mansoni, 72 h, female adult worms, 72 h, single experiment or geometric mean, read-out: Female worm motility inhibition (EC50)): 11.2 µM | EC50 ([2]; Schistosoma mansoni, 72 h, female, 72 h, individual experiments, read-out: Female worm motility inhibition (EC50), values of independent experiments): 8.77 µM | EC50 [2, 14]: 3.5 µM | EC50 ([2]; Schistosoma mansoni, 72 h, male, 72 h, individual experiments, read-out: Male worm motility inhibition (EC50), values of independent experiments): 3.8 µM | EC50 ([2]; female adult worms, 72 h, single experiment or geometric mean, read-out: Female worm motility inhibition (EC50)): 11 µM | EC50 ([2]; female, 24 h, individual experiments, read-out: Female worm motility inhibition (EC50), values of independent experiments): 10.2 µM | EC50 ([2]; female, 48 h, individual experiments, read-out: Female worm motility inhibition (EC50), values of independent experiments): 10.5 µM | EC50 ([2]; female, 72 h, individual experiments, read-out: Female worm motility inhibition (EC50), values of independent experiments): 14.3 µM | EC50 ([2]; male, 24 h, individual experiments, read-out: Male worm motility inhibition (EC50), values of independent experiments): 8.1 µM and 5.61 µM and 3.44 µM | EC50 ([2]; male, 48 h, individual experiments, read-out: Male worm motility inhibition (EC50), values of independent experiments): 4.56 µM | EC50 ([2]; male, 72 h, individual experiments, read-out: Male worm motility inhibition (EC50), values of independent experiments): 3.29 µM and 3.58 µM | CC50 at 48 h [3]: ~300 µM | Selectivity Index (CC50/EC50), Female ([4]; HepG2 CC50 / female worm motility EC50, 48 h): >30 | Selectivity Index (CC50/EC50), Male [4]: >67 | CC50 ([4]; human, 48 h): > 300 µM | EC50 ([5]; 0.001 to 100 μM): 7.09 ± 0.18 µM | Emax ([5]; read-out: Bmax, wild-type Sm.TRPMPZQ activation): 90 ± 1.31% | Emax [6]: 138 ± 13.2% | activation of Fh.TRPMPZQ [7]: did not activate | activation of Sm.TRPMMCLZ [8]: did not activate | number of juvenile worms with viability score 0 [9]: 38 | number of juvenile worms with viability score 1 [9]: 2 | number of juvenile worms with viability score 2 [9]: 14 | number of juvenile worms with viability score 3 [9]: 38

O=C(C1CCCCC1)N1CC(=O)N2CCc3ccc(-n4cc(COc5ccccc5)nn4)cc3C2C1 (stereo not shown) [Compound 5c]
hit classification (motility and phenotype scores) [10]: borderline | parasite metabolic activity compared to the DMSO control group (XTT) [1]: no statistically significant differences | EC50 ([2]; Schistosoma mansoni, 0 h, male adult worms, 0 h (immediately after addition), single experiment or geometric mean, read-out: Male worm motility inhibition (EC50)): > 100 µM | EC50 [2, 12]: > 100 µM | EC50 [2, 13]: > 100 µM | EC50 [2, 14]: > 100 µM | CC50 at 48 h [3]: 88.1 µM | Selectivity Index (CC50/EC50), Male [4]: <0.9 | Selectivity Index (SI), sex not specified ([4]; HepG2 vs adult worms, 48 h): < 1 | Bmax, wild-type Sm.TRPMPZQ activation [5]: No activity | EC50 for wild-type Sm.TRPMPZQ activation ([5]; 0.001 to 100 μM): failed to activate; also recorded: No activity | EC50 for Eg.TRPMPZQ activation [6]: No signal | Emax [6]: 7.63 ± 0.72% | block of PZQ activation of Sm.TRPMPZQ (antagonist mode) [11]: failed to impact subsequent responses to PZQ | activity against juvenile schistosomes (grouped score analysis) [9]: lacks activity | number of juvenile worms with viability score 0 [9]: 19 | number of juvenile worms with viability score 1 [9]: 1 | number of juvenile worms with viability score 2 [9]: 4 | number of juvenile worms with viability score 3 [9]: 72
